Values after ≈ are worked out from the molar mass of the structure shown. Non-standard residues stand in square brackets, D forms with d. Residues, ends and D or L forms follow the SMILES beside them. No end group written: not given here.
Experiments:
[1] = test system: CRPA; test: MBC, evaluation of antibacterial activities of KU-5878 variants; type: cell-based; details: Tables 11-15, no unit printed
[2] = test system: Pseudomonas aeruginosa (ATCC 27853); type: cell-based; details: for MBC Pseudomonas aeruginosa: Tables 11-15, no unit printed
In short: (§1)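 Bacteria grown in 3% TSB at 37° C, diluted in 10 mM sodium phosphate/1% TSB to 1×10^5 CFU/ml in wells, exposed to peptides (0–300 μg/ml) for 1 h at 37° C. Mixtures plated on TS agar for 18 h at 37° C; MBC is the lowest concentration giving no colonies.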

[3] = test system: Staphylococcus aureus (ATCC 29213); type: cell-based; details: for MBC Staphylococcus aureus: Tables 11-15, no unit printed
In short: as §1

[4] = test system: methicillin-resistant Staphylococcus aureus (ATCC 33591); details: for MBC value (μg/ml) against methicillin-resistant Staphylococcus aureus: ATCC 33591, 4 h; for MBC MRSA: Tables 11-15, no unit printed
[5] = test system: multidrug-resistant Pseudomonas aeruginosa; details: 4 h
Method: First, each of Pseudomonas aeruginosa (ATCC 27853) and Staphylococcus aureus (ATCC 29213) was cultured in 3% (w/v) TSB (Tryptic Soy Broth) liquid medium at 37° C. and 200 rpm for 4 hours, and then further cultured under the same conditions for 3 hours to a concentration of 5×10^6 CFU/ml. Strain solutions were prepared by diluting each of the further cultured strains with SP (sodium phosphate; 10 mM sodium phosphate, 1% TSB) buffer to a final concentration of 2×10^5 CFU/ml.
(§2) Then, each peptide at varying concentrations (0 μg/ml to 300 μg/ml) was dispensed into each well of a 96-well microplate, and 100 μl (1×10^5 CFU/ml) of each of the prepared strain solutions was added thereto, mixed therewith, and allowed to react with the peptide in an incubator at 37° C. for 1 hour.
In addition, 30 g/L of TS (tryptic soy) and 15 g/L of agar were dissolved in distilled water and sterilized, and then 25 ml of the solution was poured onto a 100 mm round plate and solidified at room temperature for one day or more, thereby preparing a TS agar plate. 10 μl of each reaction solution of the peptide and the strain was plated on the TS agar plate at a constant size, and incubated in an incubator at 37° C. for 18 hours, and then colony formation on the plate was checked.
Specifically, each type of bacteria was cultured in 3% (w/v) TSB (Tryptic Soy Broth) liquid medium at 37° C. and 200 rpm for 4 hours, and then further cultured under the same conditions for 3 hours to a concentration of 5×10^6 CFU/ml. Strain solutions were prepared by diluting each of the […] of 2×10^5 CFU/ml.
as §2, with “Then, the KU-5878” for “Then, each”
In addition, 10 μl of each reaction solution of the peptide and the strain was plated on the TS agar plate at a constant size, and incubated in an incubator at 37° C. for 18 hours, and then colony formation on the plate was checked.
Meanwhile, the multidrug-resistant Pseudomonas aeruginosa, multidrug-resistant Acinetobacter and multidrug-resistant Klebsiella in Table 2 below were bacteria isolated from patients at Korea University Anam Hospital. […] Then, these bacteria were used in the experiment.

[6] = test system: mouse red blood cells; type: cell-based
Method: Red blood cells were diluted with PBS, centrifuged 3 times at 900 g for 10 minutes, and washed. 100 μl of the diluted red blood cell solution (10% v/v PBS) was dispensed into each well of a 96-well microplate, and KU-5878, KU-5878-K4, KU-5878-K4-D, melittin, magainin 2 or daptomycin was added to each well which was then filled with PBS to 200 μl, followed by reaction by incubation at 37° C. for 1 hour. Then, the supernatant of the reaction solution was separated, and the absorbance at a wavelength of 550 nm was measured using a spectrophotometer. As control, PBS and 0.1% Triton X-100 (Triton X-100) solution were used.
Based on the results of measurement of the absorbance, the degree of red blood cell destruction was calculated according to Equation 1 below, and the results of the calculation are shown in FIG. 6. The % intact RBC=100(%)−[(absorbance of peptide-treated red blood cell solution−absorbance of PBS-treated red blood cell solution)/(absorbance of Triton X-100-treated red blood cell solution−absorbance of PBS-treated red blood cell solution)×100(%)] [Equation 1]

[7] = test system: Pseudomonas aeruginosa and Staphylococcus aureus; test: MBC assay, antibacterial activity of Romo1-derived peptides compared in words; type: cell-based; details: Table 1 peptides
Excerpt: Romo1 protein comprises two α-helices. The present inventors synthesized the α-helix 2 region having both hydrophilicity and hydrophobicity, and evaluated the antibacterial activity thereof using minimum bactericidal concentration (MBC) assay. The α-helix 2 region was named KU-5279 (the 52-79 amino acid region of Romo1 protein). Then, in order to identify peptides that are beneficial for human application and have excellent antibacterial activity, the present inventors synthesized several peptides comprising a sequence of contiguous amino acids starting at any amino acid selected from the 52-79 amino acid region of Romo1 protein, and comparatively evaluated the antibacterial activities of the peptides by minimum bactericidal concentration assay (See Table 1 below for information on each peptide). Evaluation of the antibacterial activity of each peptide by minimum bactericidal concentration assay was specifically performed as follows. First, each of Pseudomonas aeruginosa (ATCC 27853) and Staphylococcus aureus (ATCC 29213) was cultured in 3% (w/v) TSB (Tryptic Soy Broth) liquid medium at 37° C. and 200 rpm for 4 hours, and then further cultured under the same conditions for 3 hours to a concentration of 5×10^6 CFU/ml. […]

| Compound | MBC CRPA [1] | MBC value (μg/ml) against Pseudomonas aeruginosa ([2]; ATCC 27853, 1 h) | MBC Pseudomonas aeruginosa [2] | MBC value (μg/ml) against Staphylococcus aureus ([3]; ATCC 29213, 1 h) | MBC Staphylococcus aureus [3] | MBC value (μg/ml) against methicillin-resistant Staphylococcus aureus [4] | MBC MRSA [4] | MBC value (μg/ml) against multidrug-resistant Pseudomonas aeruginosa [5] | MBC (μg/ml) value against Pseudomonas aeruginosa ([2]; ATCC 27853, 1 h) | MBC (μg/ml) value against Staphylococcus aureus ([3]; ATCC 29213, 1 h) | hemolysis of red blood cells [6] | antibacterial activity by MBC assay, in words [7] |
| --- | --- | --- | --- | --- | --- | --- | --- | --- | --- | --- | --- | --- |
| KTMMQSGGTFGKFMAIGMGIR [KU-5878-T69K] | 150 µg/mL | 140 µg/mL | 140 µg/mL | 130 µg/mL | 130 µg/mL | 150 µg/mL | 150 µg/mL | 150 µg/mL | – | – | – | – |
| KKMMKSGGTFGTFMAIGMGIR [KU-5878-K2] | 6 µg/mL | 8 µg/mL | 8 µg/mL | 8 µg/mL | 8 µg/mL | 8 µg/mL | 8 µg/mL | 8 µg/mL | – | – | – | – |
| CC[C@H](C)[C@H](NC(=O)CNC(=O)[C@H](CCSC)NC(=O)CNC(=O)[C@@H](NC(=O)[C@H](C)NC(=O)[C@H](CCSC)NC(=O)[C@H](Cc1ccccc1)NC(=O)[C@@H](NC(=O)CNC(=O)[C@H](Cc1ccccc1)NC(=O)[C@@H](CCCCN)NC(=O)CNC(=O)CNC(=O)[C@@H](CCCCN)NC(=O)[C@@H](CCCCN)NC(=O)[C@H](CCSC)NC(=O)[C@H](CCSC)NC(=O)[C@@H](CCCCN)NC(=O)[C@@H](N)CCCCN)[C@@H](C)O)[C@@H](C)CC)C(=O)N[C@@H](CCCNC(=N)N)C(=O)O [KU-5878-K4-D] (H-K[dK]MM[dK][dK]GG[dK]FGTFMAIGMGIR-OH) | – | – | – | – | – | – | – | – | 3 µg/mL (≈ 1.29 µM) | 3 µg/mL (≈ 1.29 µM) | little hemolysis of red blood cells | – |
| KTMMQSGGTFGTFMAIGMGIA [KU-5878-R78A] | > 300 µg/mL | >300 µg/mL | > 300 µg/mL | >300 µg/mL | > 300 µg/mL | >300 µg/mL | > 300 µg/mL | >300 µg/mL | – | – | – | – |
| KTMMQSGGKFGTFMAIGMGIR [KU-5878-T66K] | 70 µg/mL | 80 µg/mL | 80 µg/mL | 60 µg/mL | 60 µg/mL | 70 µg/mL | 80 µg/mL | 80 µg/mL | – | – | – | – |
| KTMMQKGGTFGTFMAIGMGIR [KU-5878-S63K] | 50 µg/mL | 60 µg/mL | 60 µg/mL | 50 µg/mL | 50 µg/mL | 60 µg/mL | 50 µg/mL | 60 µg/mL | – | – | – | – |
| KTMMKSGGTFGTFMAIGMGIR [KU-5878-Q62K] | 90 µg/mL | 90 µg/mL | 90 µg/mL | 80 µg/mL | 80 µg/mL | 85 µg/mL | 90 µg/mL | 90 µg/mL | – | – | – | – |
| ATMMQSGGTFGTFMAIGMGIR [KU-5878-K58A] | > 300 µg/mL | >300 µg/mL | > 300 µg/mL | >300 µg/mL | > 300 µg/mL | >300 µg/mL | > 300 µg/mL | >300 µg/mL | – | – | – | – |
| CLRIGMRGRELM [pCM12, reference compound] | – | >300 µg/mL | – | >300 µg/mL | – | – | – | – | – | – | – | low bactericidal activity |
| KTMMQSGGTFGTFMAIGMGIK [KU-5878-R78K] | > 300 µg/mL | >300 µg/mL | > 300 µg/mL | >300 µg/mL | > 300 µg/mL | >300 µg/mL | > 300 µg/mL | >300 µg/mL | – | – | – | – |
